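Results reflect a 48-hour exposure of cells in 96-well plates to compound at five concentrations. GI50 = concentration required for 50% inhibition of growth. TGI marks complete inhibition of growth.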

Experimental findings from PubChem BioAssay (NCI) are described below.

Among the test systems are SN12C renal; NCI-H226 lung; OVCAR-4 ovarian; U251 CNS; RPMI-8226 leukemia; NCI-H23 lung; SK-MEL-28 melanoma; SNB-19 CNS; HT29 colon; M14 melanoma.
What all share (test): NCI anticancer screen, dose series, 48 h

On to `FC(F)(F)c1cc(NC(=S)N2c3ccccc3-n3cccc3C2c2cccnc2)cc(C(F)(F)F)c1` (stereo not given), for which the GI50 in the test with SN12C renal is 12.1 µM; with NCI-H226 lung, 22.7 µM; in the test with OVCAR-4 ovarian it was 6.24 µM; in the test with U251 CNS, 4.2 µM; in the test on RPMI-8226 leukemia, 3.84 µM; in the test with NCI-H23 lung, 7.01 µM. Besides, the GI50 with SK-MEL-28 melanoma was 15.7 µM; in the test on SNB-19 CNS it was 7.55 µM; in the test on HT29 colon it was 12.5 µM; with M14 melanoma it was 11.3 µM. Also, the TGI in the test on SN12C renal amounted to 35.9 µM; in the test with NCI-H226 lung, 54.7 µM; with OVCAR-4 ovarian, 23.8 µM; in the test with U251 CNS it was 14.8 µM; in the test with RPMI-8226 leukemia it was 18.7 µM; with NCI-H23 lung, 20.6 µM. Besides, the TGI is 37.1 µM in the test on SK-MEL-28 melanoma, 29.9 µM in the test on SNB-19 CNS, 34.5 µM in the test on HT29 colon and 28.2 µM in the test with M14 melanoma.

As to `CC1(C)N=c2cc3c(cc2N1c1ccc(Cl)cc1)=Nc1ccccc1N3c1ccc(Cl)cc1`, the GI50 is 7.9 µM with SN12C renal; 4.95 µM with NCI-H226 lung; 4.33 µM in the test on OVCAR-4 ovarian; 8.03 µM with U251 CNS; 2.05 µM in the test on RPMI-8226 leukemia; 3.16 µM with NCI-H23 lung. The GI50 in the test with SK-MEL-28 melanoma is 45.3 µM; with SNB-19 CNS it was 58.2 µM; in the test with HT29 colon, 7.85 µM; in the test with M14 melanoma it was 9.32 µM. The TGI in the test with SN12C renal was above 100 µM; in the test on NCI-H226 lung it was above 100 µM; in the test with OVCAR-4 ovarian it was above 100 µM; with U251 CNS, above 100 µM; with RPMI-8226 leukemia, 11.8 µM; in the test with NCI-H23 lung, 27.9 µM. Moreover, the TGI in the test on SK-MEL-28 melanoma, with SNB-19 CNS, with HT29 colon and in the test with M14 melanoma was above 100 µM each time.

`N#CC(C(=O)CCC(=O)Nc1cccc(C(F)(F)F)c1)c1ccccc1` (stereo not given): the TGI in the test with SN12C renal, in the test with NCI-H226 lung, in the test with OVCAR-4 ovarian, in the test on U251 CNS, with RPMI-8226 leukemia and in the test with NCI-H23 lung was above 100 µM in each case. The TGI in the test on SK-MEL-28 melanoma, with SNB-19 CNS, in the test with HT29 colon and in the test with M14 melanoma was above 100 µM each time.

For `O=C(c1ccccc1)C1OC1C(=O)c1ccccc1` (stereo not given), the GI50 is 3.22 µM in the test with SN12C renal; 5.24 µM in the test with NCI-H226 lung; 3.84 µM in the test with OVCAR-4 ovarian; 7.58 µM in the test on U251 CNS; 3.34 µM in the test on RPMI-8226 leukemia; 2.33 µM in the test on NCI-H23 lung. In addition, the GI50 in the test on SK-MEL-28 melanoma is 4.28 µM; with SNB-19 CNS it was 14.1 µM; in the test with HT29 colon, 3.19 µM; in the test with M14 melanoma, 2.78 µM. The TGI in the test on SN12C renal was 63.4 µM; with NCI-H226 lung, above 100 µM; in the test with OVCAR-4 ovarian it was 26.3 µM; in the test with U251 CNS, 37.1 µM; in the test with RPMI-8226 leukemia, 11.6 µM; with NCI-H23 lung, 10.8 µM. For the same compound, the TGI was 44.5 µM in the test on SK-MEL-28 melanoma, above 100 µM with SNB-19 CNS, 13.2 µM with HT29 colon and 11.9 µM with M14 melanoma.

On to `CCn1c(SCC(=O)Nc2cc(C(F)(F)F)ccc2Cl)nc2ccccc2c1=O`, for which the GI50 is 76.9 µM in the test with SN12C renal; 29.9 µM with NCI-H226 lung; 22.5 µM in the test on OVCAR-4 ovarian; 30.3 µM in the test on U251 CNS; above 100 µM in the test with RPMI-8226 leukemia; 46.9 µM in the test with NCI-H23 lung. Besides, the GI50 in the test with SK-MEL-28 melanoma is 53.9 µM; in the test on SNB-19 CNS, 32.8 µM; in the test on HT29 colon, above 100 µM; in the test on M14 melanoma, 90.7 µM. Further, the TGI with SN12C renal, with NCI-H226 lung, with OVCAR-4 ovarian, in the test with U251 CNS, with RPMI-8226 leukemia and in the test with NCI-H23 lung was above 100 µM throughout. The TGI in the test on SK-MEL-28 melanoma, in the test with SNB-19 CNS, with HT29 colon and in the test on M14 melanoma was above 100 µM each time.

`C1C[OH+]CCNCC[OH+]CC[OH+]CCN1.N.[Cl-].[Pt+4]`: the GI50 was above 100 µM in the test with SN12C renal; 38.2 µM in the test with NCI-H226 lung; above 100 µM in the test with OVCAR-4 ovarian; above 100 µM in the test with U251 CNS; 27.5 µM in the test on RPMI-8226 leukemia; 27.1 µM with NCI-H23 lung. Also, the GI50 was 49.5 µM in the test on SK-MEL-28 melanoma, above 100 µM in the test with SNB-19 CNS, 43.7 µM in the test with HT29 colon and 54.2 µM in the test on M14 melanoma. Besides, the TGI with SN12C renal, with NCI-H226 lung, in the test with OVCAR-4 ovarian, in the test on U251 CNS, in the test with RPMI-8226 leukemia and in the test on NCI-H23 lung was above 100 µM each time. Further, the TGI in the test on SK-MEL-28 melanoma, in the test with SNB-19 CNS, in the test on HT29 colon and in the test with M14 melanoma was above 100 µM in each case.

Take `Cc1nc2ccccc2c(/C=C/c2ccccc2)c1C(=O)/C=C/c1ccc(C(F)(F)F)cc1`: the GI50 with SN12C renal was 1.73 µM; in the test on NCI-H226 lung it was 1.73 µM; in the test with OVCAR-4 ovarian, 1.65 µM; in the test with U251 CNS, 1.4 µM; with RPMI-8226 leukemia it was 0.394 µM; in the test with NCI-H23 lung, 1.25 µM. Further, the GI50 with SK-MEL-28 melanoma was 1.74 µM; in the test with SNB-19 CNS it was 1.65 µM; in the test on HT29 colon, 0.632 µM; in the test with M14 melanoma it was 1.6 µM. Besides, the TGI in the test on SN12C renal is 4.16 µM; with NCI-H226 lung, 3.67 µM; in the test with OVCAR-4 ovarian, 3.2 µM; with U251 CNS it was 2.95 µM; with RPMI-8226 leukemia, 3.85 µM; in the test on NCI-H23 lung, 3.11 µM. The TGI with SK-MEL-28 melanoma was found to be 3.27 µM; with SNB-19 CNS, 3.05 µM; in the test with HT29 colon, 4.46 µM; in the test on M14 melanoma, 3.94 µM.
